Measured values from publication PMC4503722, “Novel Phenotypic Outcomes Identified for a Public Collection of Approved Drugs from a Publicly Accessible Panel of Assays” (PLoS ONE, 2015).
pIC50: −log10 of the molar value.

What was measured:
[1] = test system: endothelial tube formation in co-cultures of ECFCs and ADSCs treated with VEGF; test: cells; format: cell-based, human; details: for pIC50: read-out: VEGF_ADSC\ECFC Angio CD31 TubeArea summarized IC50
[2] = test system: ECFC/ADSC co-culture cell nuclei number; details: for pIC50: read-out: VEGF_ADSC\ECFC Angio Hoechst NucArea summarized IC50

| Structure (SMILES) | VEGF_ADSC\ECFC Angio CD31 TubeArea IC50/EC50 [1] [µM] | VEGF_ADSC\ECFC Angio Hoechst NucArea IC50/EC50 [2] [µM] | other results |
| --- | --- | --- | --- |
| COc1cccc2c1C(=O)c1c(O)c3c(c(O)c1C2=O)C[C@@](O)(C(=O)CO)C[C@@H]3O[C@H]1C[C@H](N)[C@H](O)[C@H](C)O1.Cl [NCGC00263918-03] | 0.0429 | 0.114 |  |
| COc1ccc([C@@H]2Sc3ccccc3NC(=O)[C@@H]2O)cc1 [NCGC00253672-01] | > 10 | > 10 |  |
| Oc1ccc(O)cc1 [NCGC00015523-13] |  |  | pIC50 [1]: < 5.00; pIC50 [2]: < 5.00 |
| CN(C)C(=S)SSC(=S)N(C)C [NCGC00091563-12] |  |  | pIC50 [2]: < 5.00 |
| CC[C@]12CCCN3CCc4c(n(c5ccccc45)C(=O)C1)[C@@H]32 [NCGC00262533-02] | > 10 | > 10 |  |
| CC(=O)Oc1cccc2c1C(=O)c1c(OC(C)=O)cc(C(=O)O)cc1C2=O [NCGC00018274-05] |  |  | IC50/EC50, VEGF_ADSC\ECFC Angio CD31 TubeArea (assay number 2) [1]: > 10 µM; IC50/EC50, VEGF_ADSC\ECFC Angio Hoechst NucArea (assay number 3) [2]: > 10 µM |
| CCOC(=O)NC(C)(C)Cc1ccc(Cl)cc1 [NCGC00183835-01] |  |  | pIC50 [1]: < 5.00; pIC50 [2]: < 5.00 |
| CCCCCCCCCCCC[N+](C)(C)CCOc1ccccc1 [NCGC00091010-03] |  |  | pIC50 [1]: 5.47; pIC50 [2]: 5.14 |
| CCCOC(=O)c1cc(O)c(O)c(O)c1 [NCGC00164234-04] |  |  | pIC50 [1]: < 5.00; pIC50 [2]: < 5.00 |
| CCCCCCCCCCCCCCCCCCCCCC(=O)Nc1ccn([C@@H]2O[C@H](CO)[C@@H](O)[C@@H]2O)c(=O)n1 [NCGC00167515-02] | > 10 | > 10 |  |
| C/C=C(/C(=C/C)c1ccc(OC(C)=O)cc1)c1ccc(OC(C)=O)cc1 [NCGC00253696-01] |  |  | pIC50 [1]: < 5.00; pIC50 [2]: < 5.00 |
| COC(=O)N[C@H](C(=O)N[C@@H](Cc1ccccc1)[C@@H](O)CN(Cc1ccc(-c2ccccn2)cc1)NC(=O)[C@@H](NC(=O)OC)C(C)(C)C)C(C)(C)C [NCGC00182552-02] | > 10 | > 10 |  |
| O=C(O)c1ccc2[nH]cc(CCCCN3CC=C(c4ccccc4)CC3)c2c1 [NCGC00092328-02] | > 10 | > 10 |  |
| CC(C)c1c(C(=O)Nc2ccccc2)c(-c2ccccc2)c(-c2ccc(F)cc2)n1CC[C@@H](O)C[C@@H](O)CC(=O)O [Atorvastatin, reference compound] |  |  | inhibition of endothelial tube / cord formation (in words) [1]: did not inhibit endothelial tube formation |
| O=C(c1ccc(F)cc1)C1CCN(CCn2c(=O)[nH]c3ccccc3c2=O)CC1 [NCGC00021146-09] | > 10 | > 10 |  |
| O=C1NC2CCCCN2C12CCN(CCCN1c3ccccc3CCc3ccc(Cl)cc31)CC2 (centres unmarked) [NCGC00183853-01] | > 10 | > 10 |  |
| Cn1ccc2cc3c(cc21)CCN3C(=O)Nc1cccnc1 [NCGC00015917-06] |  |  | IC50/EC50, VEGF_ADSC\ECFC Angio CD31 TubeArea (assay number 2) [1]: > 10 µM; IC50/EC50, VEGF_ADSC\ECFC Angio Hoechst NucArea (assay number 3) [2]: > 10 µM |
| CC[C@@H]1C(=O)OC[C@@H]1Cc1cncn1C [NCGC00023339-16] | > 10 | > 10 |  |
| CS(=O)(=O)O.Cc1c(O)cccc1C(=O)N[C@@H](CSc1ccccc1)[C@H](O)CN1C[C@H]2CCCC[C@H]2C[C@H]1C(=O)NC(C)(C)C [NCGC00090782-06] | > 10 | > 10 |  |
| CC[C@]1(O)CC[C@H]2[C@@H]3CCC4=CCCC[C@@H]4[C@H]3CC[C@@]21C [NCGC00167514-02] | 6.2451 | > 10 |  |
| CN1CCC[C@@H]1CCO[C@](C)(c1ccccc1)c1ccc(Cl)cc1.O=C(O)/C=C/C(=O)O [NCGC00016710-05] | > 10 | > 10 |  |
| COc1cc(S(N)(=O)=O)cc(C(=O)O)c1OC [NCGC00253657-01] | > 10 | > 10 |  |
| CCCCCCCCCCC[C@@H](C[C@@H]1OC(=O)[C@H]1CCCCCC)OC(=O)[C@H](CC(C)C)NC=O [NCGC00165856-03] | > 10 | > 10 |  |
